The values below come from US9511072B2, “Methods of modulating cell proliferation and cyst formation in polycystic kidney and liver diseases” (The Medical College of Wisconsin, Inc., priority 2006, dated 2016).

Data set [1] has as its system EGF receptor (EGFR) phosphorylation in REC11 cells. The experiment in a line: Western blot of phosphorylated EGFR in REC11 cystic cells. The note with it: 10 μM. The data set is classed as cell-based, mouse. The text has this: REC11 cystic cell line is a conditionally immortalized epithelial collecting tubule (CT) cell line derived from the cystic kidneys of the BPK mouse model of human ARPKD crossed to the ImmortoMouse. The BPK mouse as a human ARPKD model has been described in Nauta J. et al., Pediatr Nephrol 1993, 7:163-172 and Nauta J. et al., Pediatr Res 1995, 37:755-763. The procedures for immortalization, cell isolation, cell culture and the complete phenotypic characterization of this cell line have been described in detail in Sweeney W. E. et al., Am J Physiol C Physiol 2001, 281:C1695-705. All analysis and experiments were performed on REC11 cells grown for a minimum 6 days under non-permissive conditions to eliminate residual Large T. REC12 cell line is a conditionally immortalized epithelial collecting tubule (CT) cell line derived from the wild-type Balb/C littermates. The Balb/C is the strain of mice in which the BPK mutation arose (Nauta J. et al., Pediatr Nephrol 1993, 7:163-172 and Nauta J. et al., Pediatr Res 1995, 37:755-763).
REC11 cells (FIG. 2, lanes A and B) and control renal epithelial cells (REC12 cells: FIG. 2, lanes C and D) were grown for 10 days. Next, the cells were exposed to vehicle (lanes A and C) or 10 μM HET0016 (lanes B and D) and then harvested for assessment of the expression of phosphorylated EGFR by Western Blot analysis.
A general note: In western blotting, separated proteins are transferred to a membrane and probed.

The next data set has as its system cystic PCK CT cells. The experiment in a line: BrdU proliferation of primary cystic PCK collecting tubule cells. Type of data set: cell-based, rat. The note with it: 10 μM, 36 hours; vehicle 28.5%±1%. As for the experimental part: Renal CT cells from the PCK rat were isolated as described in Sweeney W. E. et al., Am J Physiol C Physiol, 2001, 281:C1695-705, using monoclonal F-13 a principal cells specific surface marker (Fejes-Toth N et al., J Tiss Cult Meth 1991, 13:179-184).
To determine the level of proliferation in the cystic PCK CT cells, the cells were incubated with HET-0016 (10 μM) or vehicle for 36 hours. Three hours prior to the harvesting of the cells, 5-bromo-2′-deoxyuridine (BrdU) at a concentration of 30 μM was added to determine the level of cell cycle inhibition. The cells were subsequently methanol fixed and BrdU-positive cells were identified by immunohistology with biotinylated monoclonal anti-BrdU antibody (Zymed, South San Francisco, Calif.). Data were expressed as the percentage of BrdU-labeled cells per 500 counted cells. In the vehicle treated group, 28.5%±1% (n=3) were labeled with BrdU. In the HET-0016 treated group, 10.8%±1% (n=3) were labeled with BrdU.

For another data set, the system named is BPK mice. The data set can be described thus: Chronic HET-0016 treatment of cystic BPK mice (kidney mass, cysts). The data set is classed as in vivo, mouse. As to the method:
This study was conducted using “immortalized” BPK mice as previous described by Sweeney W E et al. (Am J Physiol Cell Physiol, 281:C1695-705, 2001). In brief, BPK female heterozygotes (bpk^+/−) were bred with H-2k^b-ts-A58 transgenic males. Compound heterozygotes (bpk^+/−; H-2K^b-ts-A58^+/−) were identified by PCR and backcrossing to produce cystic offspring. Compound heterozygotes were mated to generate cystic (bpk^−/−; H-2K^b-ts-A58^+/±) and non-cystic (bpk^+/−; H-2K^b-ts-A58^+/±) offspring carrying at least one copy of the Immorto transgene (bpk^−/−; H-2K^b-ts-A58^+/±). All of the mice were genotyped for the H-2K^b-ts-A58 transgene by PCR analysis of DNA extracts from tail sections as described in Takacs-Jarrett M et al. Am J Physiol, 275:F802-11, 1998.
Kidney and liver tissues were harvested for qualitative analysis as described in Sweeney W E et al. (Kidney Int, 57:33-40, 2000) at postnatal day 21. Briefly, kidney and liver were fixed in 4.0% paraformaldehyde in phosphate buffer (pH 7.4) for 30 min at 4° C. Tissues were then washed, dehydrated through a graded series of acetone, and fixed in Immunobed embedding medium (Polysciences, Warrington, Pa.). Sections were cut at 4 μm, mounted on glass slides, and stained with hematoxylin or lectins staining the proximal tubule [Lotus tetragonobulus agglutinin (LTA)] and collecting tubule [Dolichol biflorus agglutinin (DBA)]. Segmental nephron cyst localization was characterized by light microscopy, and cystic lesions were quantitated by a morphometric index as described in Nakanishi K et al. (J Am Soc Nephrol, 12:719-25, 2001), Richards W G et al. (J Clin Invest, 101:935-9, 1998), Sweeney W E et al. (Kidney Int, 57:33-40, 2000), and Sweeney W E et al. (Kidney Int, 64:1310-9, 2003).
We administered HET-0016 (10 mg/kg/day), a specific 20-HETE synthesis inhibitor, intraperitoneally on a daily basis from post-natal day 7 to post-natal day 20. On day 21, the mice were sacrificed and the kidneys analyzed. […] Chronic blockade of 20-HETE synthesis lowered the KW/BW ratio to 9.4 in the HET-0016 treated BPK mice (Table 3).

Setting [2] is: BPK (−/−), 10 mg/kg/day i.p., post-natal day 7-20, day 21.

Several values for one entry are separate records, joined by “and”; a condition that tells them apart may be missing. Equal values may be shown once. Entries after “also recorded” stand apart in the source; their conditions may differ.

In the case of “N-hydroxy-N-(4-butyl-2-methylphenyl)-formamidine [HET0016]”, the “phosphorylation of EGFR” value in data set [1] was “reduced the phosphorylation of EGFR”. Further, the “cells labeled with BrdU (per 500 counted cells)” value in the data set with cystic PCK CT cells is listed as 10.8%±1%. For the same substance, in the data set with BPK mice (setting [2]), the Body weight is recorded as 10.3 ± 1.0^¥ g and the “Kidney Weight” value is 0.97 ± 0.32 g. Besides, the KW/BW in the data set with BPK mice (BPK (−/−), 10 mg/kg/day i.p., post-natal day 7-20, day 21, 10 mg/kg/day) is 9.4% and 9.4 ± 3.3 %. The kidney size in the data set with BPK mice (BPK mice, 10 mg/kg/day chronic daily, vehicle 1.08 g) is listed as 0.43 g. Moreover, in the data set with BPK mice (BPK mice, 10 mg/kg/day i.p.), the “kidney size vs vehicle-treated BPK mice (FIG. 4)” value is “dramatically smaller”, the “reduction in body weight vs vehicle” value is “not statistically significant”, the “reduction of KW/BW ratio vs vehicle” value is on record as 53% and the “reduction of kidney size vs vehicle” value is reported as 56%. Further, in the data set with BPK mice (BPK mice, 10 mg/kg/day, day 21 kidneys, 10 mg/kg/day), the “size and number of renal cysts (histology)” value was “marked reductions in the size and number of renal cysts; also recorded: dramatic reduction in the DBA-labeled collecting tubule cysts”. The “collecting tubule cystic index (CI)” value with BPK mice (BPK mice, 10 mg/kg/day, untreated 4.7+/−0.6) is given as 1.93+/−0.2.
